Among the test systems are SN12C; SF-539; SR; RPMI-8226; OVCAR-8; CAKI-1; ACHN; OVCAR-3; K562; NCI/ADR-RES; HOP-92; IGROV-1; SK-MEL-2; HCT-116; KM12; Malme-3M; CCRF-CEM; NCI-H23; NCI-H460; SF-268.
Common to all, as to test: NCI-60 cell line screen, 48 h

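A five-concentration, 48-hour dose response in 96-well plates underlies each endpoint, interpolated linearly between surrounding concentrations. GI50: concentration for 50% inhibition of growth.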 Activity calls are given as the source filed them. Cut-off read from the data, not from the text of the source: active = GI50 up to about 1.1 µM and inactive = higher. A value given as a limit tells only on which side of the number the result lay.

In the case of `CCOc1ccc(N2C(=O)NC3(c4ccccc4)N(C)C(=O)N(C)C23c2ccccc2)cc1` (configuration not stated), the GI50 is > 100 µM (inactive) in the assay with SN12C; > 100 µM (inactive) with SF-539; > 100 µM (inactive) with SR; 57.1 µM (inactive) in the assay with RPMI-8226; 61.1 µM (inactive) in the assay on OVCAR-8; > 100 µM (inactive) in the assay with CAKI-1. Further, the GI50 is > 100 µM (inactive) with ACHN; > 100 µM (inactive) in the assay on OVCAR-3; 74 µM (inactive) with K562; 63.1 µM (inactive) in the assay on NCI/ADR-RES; > 100 µM (inactive) in the assay with HOP-92; > 100 µM (inactive) in the assay on IGROV-1. For the same compound, the GI50 is > 100 µM (inactive) in the assay with SK-MEL-2; 78 µM (inactive) with HCT-116; 55.3 µM (inactive) with KM12; > 100 µM (inactive) in the assay on Malme-3M; > 100 µM (inactive) in the assay with CCRF-CEM; > 100 µM (inactive) with NCI-H23.
As to `COc1ccc(N2C(=O)C3c4[nH]c5ccc(F)cc5c4C4CCC(c5ccccc5)CC4C3C2=O)cc1` (configuration not stated), the GI50 with NCI-H460 was 10 µM (inactive); in the assay with SN12C, 26.2 µM (inactive); in the assay with SR, 6.93 µM (inactive); in the assay with RPMI-8226, 32.8 µM (inactive); with OVCAR-8, 17.8 µM (inactive); in the assay on CAKI-1, 19.8 µM (inactive). Besides, the GI50 in the assay on ACHN is 20.3 µM (inactive); in the assay on OVCAR-3 it was 38.3 µM (inactive); with K562, 3.44 µM (inactive); with NCI/ADR-RES, 45.9 µM (inactive); in the assay on HOP-92 it was 14.5 µM (inactive); in the assay with IGROV-1, 20.1 µM (inactive). Moreover, the GI50 in the assay on SK-MEL-2 is 21.8 µM (inactive); with HCT-116, 20.7 µM (inactive); in the assay with SF-268, 5.81 µM (inactive); in the assay with KM12 it was 20.7 µM (inactive); with Malme-3M it was 16.1 µM (inactive); in the assay with CCRF-CEM, 2.26 µM (inactive). Besides, the GI50 in the assay with NCI-H23 is 18.8 µM (inactive).
As for `O=C(Nc1cc2c(=O)[nH]c3ccccc3c2oc1=O)c1cnccn1`, the GI50 in the assay on NCI-H460, in the assay on SN12C, in the assay on SF-539, in the assay with SR, in the assay on OVCAR-8 and in the assay with CAKI-1 was > 100 µM (inactive) in each case. For the same compound, the GI50 in the assay with ACHN, in the assay with OVCAR-3, with K562, in the assay on NCI/ADR-RES, in the assay on HOP-92 and with IGROV-1 was > 100 µM (inactive) throughout. Besides, the GI50 in the assay on SK-MEL-2, in the assay on HCT-116, in the assay on KM12, in the assay with Malme-3M, with CCRF-CEM and with NCI-H23 was > 100 µM (inactive) each time.
In the case of `Oc1cc(-c2cccc(C(F)(F)F)c2)nc2cc3c(cc12)OCO3`, the GI50 was 1.39 µM (inactive) in the assay with NCI-H460; 8.75 µM (inactive) with SN12C; 1.04 µM (active) with SF-539; 0.55 µM (active) in the assay with SR; 1.77 µM (inactive) in the assay with RPMI-8226; 2.34 µM (inactive) in the assay with OVCAR-8. For the same compound, the GI50 is 10.9 µM (inactive) in the assay on CAKI-1; 25.7 µM (inactive) with ACHN; 0.26 µM (active) in the assay on K562; 1.04 µM (active) with NCI/ADR-RES; 2.24 µM (inactive) with HOP-92; 3.29 µM (inactive) with IGROV-1. In addition, the GI50 in the assay with SK-MEL-2 was 1.28 µM (inactive); in the assay on KM12 it was 2.12 µM (inactive); in the assay with Malme-3M, 0.518 µM (active); in the assay with CCRF-CEM, 0.277 µM (active); with NCI-H23, 1.77 µM (inactive).
Regarding `Cc1cccc2c1Oc1ncccc1C2NC(=O)CN(C)C` (configuration not stated), the GI50 with NCI-H460, with SN12C, in the assay with SF-539, with SR, in the assay on OVCAR-8 and in the assay on ACHN was > 10 µM (inactive) each time. The GI50 is > 10 µM (inactive) in the assay on OVCAR-3; > 10 µM (inactive) in the assay on K562; > 10 µM (inactive) in the assay on NCI/ADR-RES; 3.77 µM (inactive) in the assay on HOP-92; > 10 µM (inactive) in the assay on IGROV-1; > 10 µM (inactive) in the assay with SK-MEL-2. The GI50 with SF-268, with KM12, in the assay on Malme-3M, in the assay with CCRF-CEM and with NCI-H23 was > 10 µM (inactive) in each case.
As to `C[C@H]1CC[C@@]2(OC1)O[C@H]1C[C@H]3[C@@H]4CC[C@@H]5C[C@@H](OC6OC(CO)C(O)C(O)C6OC6OC(CO)C(O)C(O)C6O)CC[C@]5(C)[C@H]4CC[C@]3(C)[C@H]1[C@@H]2C` (some centres not stated), the GI50 in the assay with SN12C was 2.07 µM (inactive); in the assay on SF-539 it was 2.03 µM (inactive); with SR, 2.07 µM (inactive); in the assay with RPMI-8226 it was 1.9 µM (inactive); with OVCAR-8 it was 2.45 µM (inactive); with CAKI-1, 1.8 µM (inactive). In addition, the GI50 in the assay on ACHN is 2.11 µM (inactive); with OVCAR-3, 2.16 µM (inactive); with K562, 2.07 µM (inactive); in the assay with NCI/ADR-RES, 2.99 µM (inactive); with HOP-92, 2.37 µM (inactive); in the assay with IGROV-1 it was 2.3 µM (inactive). The GI50 with SK-MEL-2 is 2.28 µM (inactive); in the assay with HCT-116, 2.01 µM (inactive); in the assay on SF-268, 2.3 µM (inactive); with KM12 it was 2.6 µM (inactive); with Malme-3M, 2.62 µM (inactive); in the assay on CCRF-CEM it was 1.58 µM (inactive). The GI50 in the assay on NCI-H23 was 2.31 µM (inactive).
`CC1(C)CC(=O)c2c(N)n[nH]c2C1`: the GI50 in the assay on NCI-H460, in the assay on SN12C, in the assay on SF-539, in the assay on SR, with RPMI-8226 and with OVCAR-8 was > 100 µM (inactive) each time. The GI50 with CAKI-1, in the assay with ACHN, in the assay on OVCAR-3, in the assay on K562, with NCI/ADR-RES and with HOP-92 was > 100 µM (inactive) in each case. Moreover, the GI50 in the assay on IGROV-1, with SK-MEL-2, in the assay with HCT-116, with KM12, in the assay on Malme-3M and in the assay on CCRF-CEM was > 100 µM (inactive) in each case. The GI50 in the assay with NCI-H23 was > 100 µM (inactive).
For the compound `O=C1NCCN1/N=C/c1c(Cl)n(-c2ccccc2)c2ccccc12`, the GI50 is 18.7 µM (inactive) with SN12C; 10.4 µM (inactive) with SF-539; 28 µM (inactive) in the assay with SR; 22.4 µM (inactive) in the assay with RPMI-8226; 22.3 µM (inactive) with OVCAR-8; 17.3 µM (inactive) in the assay with CAKI-1. Besides, the GI50 with ACHN is 23.9 µM (inactive); in the assay on OVCAR-3, 66.4 µM (inactive); in the assay on K562, 24.5 µM (inactive); with NCI/ADR-RES, 19.5 µM (inactive); in the assay on HOP-92, 23.6 µM (inactive); with IGROV-1, 17.2 µM (inactive). The GI50 was 25 µM (inactive) in the assay with SK-MEL-2; 19.5 µM (inactive) in the assay with HCT-116; 20.1 µM (inactive) with SF-268; 15.7 µM (inactive) in the assay on KM12; 16.6 µM (inactive) in the assay on Malme-3M; 29 µM (inactive) in the assay with CCRF-CEM. In addition, the GI50 in the assay on NCI-H23 is 18.5 µM (inactive).
Consider `COc1ccc2[nH]c3c(c2c1)CCc1c(OC)cccc1-3`, for which the GI50 was > 100 µM (inactive) with NCI-H460; > 100 µM (inactive) in the assay with SN12C; > 100 µM (inactive) in the assay with SR; 51.9 µM (inactive) with RPMI-8226; > 100 µM (inactive) in the assay on OVCAR-8; > 100 µM (inactive) in the assay on CAKI-1. The GI50 with ACHN was > 100 µM (inactive); in the assay with OVCAR-3, > 100 µM (inactive); in the assay with K562 it was 53.6 µM (inactive); with NCI/ADR-RES it was > 100 µM (inactive); with HOP-92, > 100 µM (inactive); in the assay with IGROV-1 it was > 100 µM (inactive). For the same compound, the GI50 in the assay with SK-MEL-2 was > 100 µM (inactive); in the assay on HCT-116, > 100 µM (inactive); in the assay on SF-268, > 100 µM (inactive); in the assay with KM12, > 100 µM (inactive); in the assay with Malme-3M, 75.2 µM (inactive); in the assay with CCRF-CEM it was 52.2 µM (inactive). Also, the GI50 in the assay with NCI-H23 was > 100 µM (inactive).
On to `CN(C(=O)c1ccncc1)c1ccccc1`, for which the GI50 in the assay on NCI-H460, with SN12C, with SF-539, in the assay on SR, in the assay on RPMI-8226 and with OVCAR-8 was > 100 µM (inactive) in each case. In addition, the GI50 in the assay on CAKI-1, in the assay on ACHN, with OVCAR-3, in the assay with K562, in the assay with NCI/ADR-RES and in the assay on HOP-92 was > 100 µM (inactive) each time. Further, the GI50 in the assay on IGROV-1, in the assay with SK-MEL-2, in the assay on HCT-116, with SF-268, in the assay with KM12 and in the assay with Malme-3M was > 100 µM (inactive) throughout. Moreover, the GI50 with NCI-H23 is > 100 µM (inactive).
As for `Cc1cccc(/C=N/NC(=S)N2CCCC2)n1`, the GI50 was 0.337 µM (active) in the assay with NCI-H460; 0.247 µM (active) in the assay with SN12C; 0.479 µM (active) in the assay with SF-539; 0.0509 µM (active) in the assay with SR; 0.324 µM (active) with OVCAR-8; 0.197 µM (active) in the assay with CAKI-1. The GI50 in the assay on ACHN is 0.202 µM (active); in the assay on OVCAR-3, 0.0255 µM (active); in the assay on K562 it was 0.2 µM (active); in the assay with NCI/ADR-RES, 0.166 µM (active); in the assay with HOP-92 it was 1.65 µM (inactive); with IGROV-1 it was 0.822 µM (active). Also, the GI50 in the assay with SK-MEL-2 was 1.01 µM (active); with HCT-116, 0.069 µM (active); in the assay with SF-268 it was 0.251 µM (active); in the assay with Malme-3M it was 0.0286 µM (active); with CCRF-CEM, < 0.01 µM (active); with NCI-H23, 0.215 µM (active).

(Values after ChEMBL document CHEMBL1201862, “PubChem BioAssay data set” (2004).)
